Test results reported in ChEMBL document CHEMBL1145588, “Design, synthesis, and structure-activity relationships of piperidine and dehydropiperidine carboxylic acids as novel, potent dual PPARalpha/gamma agonists” (Bioorg Med Chem Lett, 2008).

Experiments:
[1] = biological target: T1, Peroxisome proliferator-activated receptor gamma (Homo sapiens, UniProt P37231); test: Agonist activity at human PPARgamma expressed in HEK293 cells assessed as luciferase activity by GAL4 transactivation assay; format: functional, cell-based
T1 sequence (P37231 whole entry): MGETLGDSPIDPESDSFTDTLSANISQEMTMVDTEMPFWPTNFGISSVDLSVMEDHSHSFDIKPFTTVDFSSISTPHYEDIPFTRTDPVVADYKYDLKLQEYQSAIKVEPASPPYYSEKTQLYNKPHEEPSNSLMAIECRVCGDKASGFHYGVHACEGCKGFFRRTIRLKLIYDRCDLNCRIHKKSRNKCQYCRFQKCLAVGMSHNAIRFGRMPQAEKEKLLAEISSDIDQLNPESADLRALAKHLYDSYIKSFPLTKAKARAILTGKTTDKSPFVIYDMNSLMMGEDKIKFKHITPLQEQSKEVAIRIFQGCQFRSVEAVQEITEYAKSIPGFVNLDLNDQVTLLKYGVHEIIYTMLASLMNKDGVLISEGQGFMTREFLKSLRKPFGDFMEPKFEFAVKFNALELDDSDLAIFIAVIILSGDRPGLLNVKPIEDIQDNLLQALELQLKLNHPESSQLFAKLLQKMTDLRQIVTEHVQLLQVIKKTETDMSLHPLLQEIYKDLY

[2] = biological target: T2, Peroxisome proliferator-activated receptor alpha (Homo sapiens, UniProt Q07869); test: Agonist activity at human PPARalpha expressed in HEK293 cells assessed as luciferase activity by GAL4 transactivation assay; format: functional, cell-based
T2 sequence (Q07869 whole entry): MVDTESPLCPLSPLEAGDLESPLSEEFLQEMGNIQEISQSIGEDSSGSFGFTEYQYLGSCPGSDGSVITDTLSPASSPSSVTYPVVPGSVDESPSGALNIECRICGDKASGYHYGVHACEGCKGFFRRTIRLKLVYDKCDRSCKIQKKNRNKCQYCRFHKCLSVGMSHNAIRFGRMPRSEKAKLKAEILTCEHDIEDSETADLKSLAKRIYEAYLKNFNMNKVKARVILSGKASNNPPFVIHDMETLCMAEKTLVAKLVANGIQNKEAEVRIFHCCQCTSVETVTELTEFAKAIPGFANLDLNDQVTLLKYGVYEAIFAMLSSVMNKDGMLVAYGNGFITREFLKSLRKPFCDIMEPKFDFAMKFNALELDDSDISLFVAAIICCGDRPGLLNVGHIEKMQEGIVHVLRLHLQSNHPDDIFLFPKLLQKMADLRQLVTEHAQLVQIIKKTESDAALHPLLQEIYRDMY

[3] = biological target: Peroxisome proliferator-activated receptor gamma (Homo sapiens) (UniProt P37231); test: Binding affinity at human PPARgamma by fluorescence polarization
[4] = biological target: Peroxisome proliferator-activated receptor alpha (Homo sapiens) (UniProt Q07869); test: Binding affinity at human PPARalpha by fluorescence polarization

With `Cc1oc(-c2ccccc2)nc1CCOc1ccc(C2=C(C(=O)O)CCN(C(=O)OCC(C)C)C2)cc1` the EC50 [1] was 4650 nM, the EC50 [2] was 5570 nM and the IC50 [3] was 7400 nM. The IC50 [4] was > 27300 nM.
Molecule `Cc1oc(-c2ccccc2)nc1CCOc1cccc(CC2=C(C(=O)O)CCN(c3nccc(C(F)(F)F)n3)C2)c1` has an EC50 [1] of 644 nM, an EC50 [2] of 89 nM and an IC50 [3] of 1380 nM. The IC50 [4] was 1330 nM.
`Cc1oc(-c2ccccc2)nc1CCOc1cccc(C2=C(CC(=O)O)CCN(C(=O)Oc3ccccc3)C2)c1` showed an EC50 [1] of 46 nM, an EC50 [2] of 4 nM and an IC50 [3] of 34 nM. The IC50 [4] was 16 nM.
`Cc1oc(-c2ccccc2)nc1CCOc1ccc(C[C@@H]2CN(c3nccc(C(F)(F)F)n3)C[C@@H]2C(=O)O)cc1` was tested, and the EC50 [1] was 7 nM and the EC50 [2] was 165 nM.
For `Cc1oc(-c2ccccc2)nc1CCOc1cccc(C2=C(C(=O)O)CCN(Cc3ccccc3)C2)c1`, the EC50 [1] was > 7500 nM, the EC50 [2] was > 7500 nM and the IC50 [3] was > 27500 nM. The IC50 [4] was > 27500 nM.
For `CCCOC(=O)N1CCC(C(=O)O)=C(Cc2cccc(OCCc3nc(-c4ccccc4)oc3C)c2)C1`, the EC50 [1] was 180 nM.
For `Cc1oc(-c2ccccc2)nc1CCOc1ccc(CC2=C(C(=O)O)CCN(C(=O)OCC(C)C)C2)cc1`, the EC50 [1] was 1120 nM, the EC50 [2] was 28 nM and the IC50 [3] was 3040 nM. For the same molecule, the IC50 [4] was 1170 nM.
`Cc1oc(-c2ccccc2)nc1CCOc1ccc(CCC2=C(C(=O)O)CCN(C(=O)OCC(C)C)C2)cc1` showed an EC50 [1] of 74 nM, an EC50 [2] of 56 nM and an IC50 [3] of 110 nM. It also gave an IC50 [4] of 255 nM.
For `Cc1oc(-c2ccccc2)nc1CCOc1cccc(CC2=C(C(=O)O)CCN(C(=O)OCc3ccccc3)C2)c1`, the EC50 [1] was > 3500 nM, the EC50 [2] was 4920 nM and the IC50 [3] was 4730 nM. For the same molecule, the IC50 [4] was > 15000 nM.
In the case of `Cc1oc(-c2ccccc2)nc1CCOc1cccc(C2=C(CC(=O)O)CCN(C(=O)OCC(C)C)C2)c1`, the EC50 [1] is reported as 18 nM, the EC50 [2] is reported as 6 nM and the IC50 [3] is reported as 49 nM. The IC50 [4] was 130 nM.
`Cc1oc(-c2ccccc2)nc1CCOc1cccc(C2CN(C(=O)OCC(C)C)CCC2CC(=O)O)c1` (racemic) showed an EC50 [1] of 490 nM, an EC50 [2] of 580 nM and an IC50 [3] of 3090 nM. The IC50 [4] was > 15000 nM.
`Cc1oc(-c2ccccc2)nc1CCOc1cccc(CC2=CN(c3nccc(C(F)(F)F)n3)CCC2C(=O)O)c1` (racemic) showed an EC50 [1] of 14 nM, an EC50 [2] of 23 nM and an IC50 [3] of 287 nM. For the same molecule, the IC50 [4] was 1080 nM.
Work on `Cc1oc(-c2ccccc2)nc1CCOc1ccc(CCC2CN(C(=O)OCC(C)C)CCC2C(=O)O)cc1` (racemic) yielded an EC50 [1] of 263 nM, an EC50 [2] of 44 nM and an IC50 [3] of 450 nM. The IC50 [4] was 711 nM.
`Cc1oc(-c2ccccc2)nc1CCOc1ccc(CC2CN(C(=O)OCC(C)C)CCC2C(=O)O)cc1` (racemic) gave an EC50 [1] of 257 nM, an EC50 [2] of 5 nM and an IC50 [3] of 1250 nM. For the same molecule, the IC50 [4] was 215 nM.
Molecule `Cc1oc(-c2ccccc2)nc1CCOc1cccc(CC2CN(C(=O)OCC(C)C)CCC2C(=O)O)c1` (racemic) has an EC50 [1] of 1070 nM, an EC50 [2] of 18 nM and an IC50 [3] of 6030 nM. It also gave an IC50 [4] of 1370 nM.
In the case of `Cc1oc(-c2ccccc2)nc1CCOc1cccc(C2CN(C(=O)OCC(C)C)CCC2C(=O)O)c1` (racemic), the EC50 [1] is reported as > 7500 nM, the EC50 [2] is reported as 209 nM and the IC50 [3] is reported as > 27300 nM. For the same molecule, the IC50 [4] was 7620 nM.
Work on `Cc1oc(-c2ccccc2)nc1CCOc1cccc(CC2=CN(C(=O)OCc3ccccc3)CCC2C(=O)O)c1` (racemic) yielded an EC50 [1] of 24 nM, an EC50 [2] of 16 nM and an IC50 [3] of 133 nM. It also gave an IC50 [4] of 654 nM.
For `Cc1oc(-c2ccccc2)nc1CCOc1cccc(C2CN(C(=O)Oc3ccccc3)CCC2CC(=O)O)c1` (racemic), the EC50 [1] was 1290 nM, the EC50 [2] was 170 nM and the IC50 [3] was 7690 nM. For the same molecule, the IC50 [4] was 8120 nM.
For `COc1ccc(OC(=O)N(CC(=O)O)Cc2ccc(OCCc3nc(-c4ccccc4)oc3C)cc2)cc1` [MURAGLITAZAR], the EC50 [2] was 1410 nM.
